Data published in PMC8794255, “Small molecule inhibitor of Igf2bp1 represses Kras and a pro-oncogenic phenotype in cancer cells” (RNA Biology, 2021).
“And” between values parts separate entries of the source, which are not always exact repeats. Identical values can stand only once.

Key:
[1] = target: T1, La (Homo sapiens, UniProt P05455); experiment: FP counterscreen: La binding to Bcl2 RNA
T1 sequence (P05455 1-408): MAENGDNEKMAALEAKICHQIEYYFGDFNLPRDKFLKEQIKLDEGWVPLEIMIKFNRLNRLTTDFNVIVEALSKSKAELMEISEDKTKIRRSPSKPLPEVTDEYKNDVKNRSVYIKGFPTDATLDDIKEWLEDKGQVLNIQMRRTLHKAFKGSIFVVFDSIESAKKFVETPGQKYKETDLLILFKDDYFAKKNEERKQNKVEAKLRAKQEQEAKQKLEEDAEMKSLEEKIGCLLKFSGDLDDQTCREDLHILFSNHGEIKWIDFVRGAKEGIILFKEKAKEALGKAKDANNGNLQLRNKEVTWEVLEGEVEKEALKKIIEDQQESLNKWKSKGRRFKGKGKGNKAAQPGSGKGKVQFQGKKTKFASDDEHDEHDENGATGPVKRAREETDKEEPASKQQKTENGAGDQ

[2] = target: T2, Igf2bp1 (Homo sapiens, UniProt Q9NZI8); experiment: Microscale thermophoresis (MST), full-length Igf2bp1; settings: full-length protein, read-out: KD of compound binding to Igf2bp1
T2 construct: Recombinant full-length Igf2bp1 protein was labelled with RED-tris-NTA dye; made in house
T2 sequence (Q9NZI8 whole entry): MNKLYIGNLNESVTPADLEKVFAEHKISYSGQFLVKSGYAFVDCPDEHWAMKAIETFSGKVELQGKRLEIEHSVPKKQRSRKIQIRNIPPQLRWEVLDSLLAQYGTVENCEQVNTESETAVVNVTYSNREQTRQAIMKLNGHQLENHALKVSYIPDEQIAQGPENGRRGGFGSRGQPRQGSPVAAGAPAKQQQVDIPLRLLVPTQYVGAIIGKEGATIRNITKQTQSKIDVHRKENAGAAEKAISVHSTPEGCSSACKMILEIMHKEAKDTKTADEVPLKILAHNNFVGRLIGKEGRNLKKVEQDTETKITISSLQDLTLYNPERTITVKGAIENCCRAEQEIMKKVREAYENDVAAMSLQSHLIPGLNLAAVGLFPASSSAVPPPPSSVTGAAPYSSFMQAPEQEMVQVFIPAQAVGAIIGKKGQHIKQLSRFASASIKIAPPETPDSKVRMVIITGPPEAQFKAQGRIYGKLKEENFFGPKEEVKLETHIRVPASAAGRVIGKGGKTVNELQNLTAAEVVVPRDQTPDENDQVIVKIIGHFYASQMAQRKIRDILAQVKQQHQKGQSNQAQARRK
Protocol: (§1) Recombinant full-length Igf2bp1 protein was labelled with RED-tris-NTA dye using a Monolith NT His-Tag Labelling Kit (NanoTemper) while RRM12, KH12 and KH34 di-domain peptides were labelled using the Protein Labelling Kit RED NHS 2nd generation (NanoTemper). Labelled proteins were spun at 15,000 g for 5 min to eliminate aggregates. All samples were 2X labelled protein mix of Igf2bp1 (200 nM) in PBST and were combined (1:1) with serial dilutions of compound or Kras6 RNA in binding buffer (10mMTris pH = 7.5, 100 mM NaCl, 0.1 mM EDTA, 0.06% IPEGAL, 0.02 μg/μL tRNA, 2 mM DTT, 0.1 μg/μL heparin) in final volume of 20 μL, room temperature for 15 min. Samples were then loaded into standard capillaries (NanoTemper) and read in the Monolith NT.115 scanner (NanoTemper) using the red filter with reading conditions of 95% LED power and 40% MST power, 5 sec fluorescence before, 30 sec MST on, 5 sec fluorescence after and 25 sec delay between samples. Results were analysed using the MO Control software (NanoTemper) for curve fitting to KD.

[3] = target: T3, Igf2bp1 RRM12 di-domain (Homo sapiens, UniProt Q9NZI8); experiment: MST, Igf2bp1 RRM12 di-domain; settings: read-out: KD of binding to RRM12
T3 construct: Human Igf2bp1 di-domains RRM12 (M1-P188) and KH34 (P387-A574); 6xHis (N, cleaved yes); made in house; host or cells: E. coli BL21(DE3)
T3 sequence (Q9NZI8 1-188): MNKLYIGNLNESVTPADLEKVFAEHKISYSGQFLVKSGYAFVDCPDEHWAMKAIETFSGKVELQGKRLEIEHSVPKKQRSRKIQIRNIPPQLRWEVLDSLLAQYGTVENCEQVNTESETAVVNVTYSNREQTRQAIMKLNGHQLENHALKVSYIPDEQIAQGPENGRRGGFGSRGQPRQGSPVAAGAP
Protocol: as §1
(§2) The open reading frame of Igf2bps were cloned into the pET-21(d) plasmid (Novagen) between the Nco1 and Xho1 sites, as previously described. […]

[4] = target: T4, Igf2bp1 KH12 di-domain (Homo sapiens, UniProt Q9NZI8); experiment: MST, Igf2bp1 KH12 di-domain; format: binding
T4 construct: 6xHis/GST (N, cleaved yes); made in house; host or cells: E. coli BL21(DE3)
T4 sequence (Q9NZI8 194-369): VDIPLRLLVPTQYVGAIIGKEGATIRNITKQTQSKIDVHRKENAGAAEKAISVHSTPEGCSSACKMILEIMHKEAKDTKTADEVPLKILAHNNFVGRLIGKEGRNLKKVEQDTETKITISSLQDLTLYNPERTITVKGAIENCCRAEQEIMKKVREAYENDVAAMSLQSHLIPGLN
Protocol: as §1, §2

[5] = target: T5, Igf2bp1 KH34 di-domain (Homo sapiens, UniProt Q9NZI8); experiment: MST, Igf2bp1 KH34 di-domain; settings: read-out: KD of binding to KH34
T5 construct: Human Igf2bp1 di-domains RRM12 (M1-P188) and KH34 (P387-A574); 6xHis (N, cleaved yes); made in house; host or cells: E. coli BL21(DE3)
T5 sequence (Q9NZI8 387-574): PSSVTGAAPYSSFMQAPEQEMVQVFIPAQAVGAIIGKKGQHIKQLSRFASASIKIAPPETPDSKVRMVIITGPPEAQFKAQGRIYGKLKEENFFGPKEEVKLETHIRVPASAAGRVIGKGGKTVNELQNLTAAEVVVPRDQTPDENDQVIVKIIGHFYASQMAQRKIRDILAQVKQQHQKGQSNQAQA
Protocol: as §1, §2

[6] = test system: LKR-M cells overexpressing human Igf2bp1-GFP; experiment: Wound healing assay, LKR-M cells expressing human Igf2bp1-GFP; format: cell-based, mouse; settings: 20 μM 7773 vs DMSO
Protocol: (§3) Cells were seeded in 96 IncuCyte® ImageLock plates (20X10^3 cells per well) for 24 hours, to a near confluency of 95%, before the addition of increasing concentrations of compound. After a further 24 hours, wells were scratched using the IncuCyte® 96-well WoundMaker Tool, and the cells cultured for an additional 48 hours using the IncuCyte® S3 Live-Cell Analysis System (Essen BioScience). The plate was imaged at increments of 120 minutes for a period of 48 hours, and then analysed for relative wound healing.

[7] = test system: LKR-M cells expressing GFP alone; experiment: Wound healing assay, LKR-M cells expressing GFP alone; format: cell-based, mouse; settings: 20 μM 7773 vs DMSO
Protocol: as §3

[8] = test system: Igf2bp1-luciferase reporter fusions in RKO cells; experiment: Split-luciferase assay (Igf2bp1 dimerization) in RKO cells; format: cell-based; settings: 50 μM 7773
Protocol: Vectors expressing different fragments of split luciferase reporters with flexible linker were procured from Addgene (catalogue # 58786, 58787, 58788 and 58789). The vectors were digested with EcoRI and XhoI. EcoRI and XhoI restriction enzyme sites were added to 5′ and 3′ ends of the coding region of IGF2BP1, respectively, using PCR. We constructed four split luciferase reporter vectors by cloning IGF2BP1 in different orientations with the luciferase fragments . Primers used for the amplification of IGF2BP1 were: […]
The RKO cells were seeded in DMEM with 10% calf serum 24 hrs prior to the transfection. Transfection was done using Lipofectamine 2000 with reporter plasmids and Renilla-luciferase expressing vector (as internal control). After 24 hrs, cells were lysed using passive lysis buffer (Promega catalogue # E1941). The lysates were cleared by centrifugation and its 20 μL volume was mixed with 100 μL of luciferase substrate solution for luminescence recording which was followed by addition of 100 μL of Stop-glo solution (Promega catalogue # E1910) with an additional luminescence reading. Both readings were detected by using GloMax 20/20 Luminometer (Promega), and the final value for each sample was the ratio of their two respective readings. […]

[9] = test system: HEK293 cells; experiment: Cell proliferation assay (Incucyte), HEK293; format: cell-based, human; settings: HEK293, up to 20 μM
Protocol: ES2, H1299 and HEK293 cells were seeded in a 96 well plate (5X10^3 cells per well) for 24 hours before adding the compound at increasing concentrations. After an additional 24 hours, the plate was incubated in an IncuCyte® S3 Live-Cell Analysis System (Essen BioScience). The wells were filmed for 72 hours, and then analysed for proliferation rate Using IncuCyte® S3 Live-Cell Analysis System (Essen BioScience)

For `O=C(c1ccc(Cn2cnnn2)cc1)N1CCCC(Nc2ccc3c(c2)OCO3)C1` (stereo not shown) [compound 7773], the “Effect on control RBP (La) binding to its target (Bcl2 RNA)” value [1] was “almost no effect”, the IC50 ([1]; control RNA binding protein, read-out: IC50, inhibition of La binding to Bcl2 RNA) was greater than 100 µM and the Kd [2] was 17 µM. For the same molecule, the Kd [3] was 1.5 µM, the “Binding to KH12” value [4] was “no binding was observed” and the Kd [5] was 7.1 µM and 7.2 µM. The “Effect on Igf2bp1-GFP-enhanced wound healing” value [6] was “significantly inhibited”, the “Effect on migration of cells expressing GFP alone” value [7] was “unaffected” and the “Effect on split-luciferase luminescence” value [8] was “significantly reduced luminescence”. For the same molecule, the Cell proliferation [9] was “remarkably unaffected”.
